Data: patent US20120028897A1, “METHODS AND COMPOSITIONS FOR THE TREATMENT OF FLUID RETENTION DISORDERS” (priority 2008, published 2012)

Assays:
Type in all cases: in vivo, rat
[1] = tested on: anesthetized rats; experiment: Renal potassium excretion during and after iv peptide infusion in anesthetized rats
Description: (§1) Rats were not fasted prior to clearance experiments and ranged in weight from 250-340 g at the time of study. Anesthesia was induced with an intraperitoneal injection of pentobarbital sodium (55 mg/kg BW) and maintained at a surgical plane by intermittent intravenous supplementation. Core temperature was maintained at 37° C. by a servo-controlled, heated operating table. Animals breathed spontaneously through a PE240 cannula inserted into the trachea. A jugular vein was catheterized with PE50 cannula tubing for intravenous infusion of isotonic saline containing FITC-labeled inulin (0.4% W/V, Sigma, St Louis Mo.) and two PE10 cannulae, one for supplemental anesthetic and the other for peptide infusions (described below in the experimental protocol section). The ureters were exposed through a midline ventral incision and cannulated with PE10 tubing about one cm from each kidney. Urine was collected over 20 min periods and the volume estimated by weight. A femoral artery was cannulated with PE50 tubing for continuous measurement of arterial blood pressure and intermittent blood samples (50 μl), taken at the mid point of each urine collection.
(§2) Arterial blood pressure was measured with a pressure transducer connected to a cardiovascular analyzer (Model 50110, Stoelting Instruments Wood Dale, Ill.). Left renal blood flow was measured in some rats with a flow probe positioned on the left renal artery and connected to a blood flow monitor (model 1 PRB probe and model T420 monitor, Transonic Systems Inc. Ithaca N.Y.). Arterial pressure, heart rate, and renal blood flow were digitized with an A/D converter (Keithley instruments, Cleveland, Ohio Model KUSB 3100) for display and storage on a Windows-based personal computer using open layers data acquisition software (Dtx_Ez, Data Translation Inc, Marlboro, Mass.). Sodium and potassium concentrations in plasma and urine were measured by flame photometry (Model 943, Instrumentation Laboratory Co., Lexington Mass.). Glomerular filtration rate (GFR) was measured as the renal clearance rate of FITC-labeled inulin
(§3) After post-surgical equilibration (−60 min) and three 20 min control clearance periods, huUgnA or B was infused into the jugular vein at 10 μl/min over a 60 min period, followed by a return to isotonic saline for the remainder of the experiment. The infused doses of huUgnA were 12, 25, 50, 100, or 200 nmol/kg BW in a total of 38 rats; huUgnB doses were 9, 18, 35, 70, and 140 nmol/kg BW in 35 rats. A UgnA mimetic, E. coli STh (ST-core), was infused into a third group of 32 rats at doses of 17, 32, 66, 133, and 266 nmol/kg. Renal excretory responses to these infusions were slow to develop and long lasting, so clearance periods were continued for 2-3 hr after the termination of the peptide infusion. This protracted time course limited protocols to one dose of one peptide in each rat. A control group of 10 rats received isotonic saline at 10 μl/min in place of the peptide infusion, but was otherwise treated in the same way as the experimental groups.
Sodium and potassium excretion rates are expressed as absolute values (UNaV and UKV) or factored by filtered load to provide fractional excretion (FENa and FEK). Glomerular filtration rate (GFR) was equated with inulin clearance. The net natriuretic response to peptide infusions was assessed by summing total Na excretion during infusion and post-infusion collection periods in each rat after subtraction of corresponding mean values obtained from the control group. The cumulative net excretion obtained in this way provides a measure of the natriuretic response to each dose of peptide infused. Results from both kidneys were averaged for each rat before calculating group means±sem.
Group comparisons were made with one way analysis of variance (ANOVA) using peptide doses as column variables. […]

[2] = tested on: anesthetized rats; experiment: Mean arterial blood pressure during and after iv peptide infusion
Description: as §1, §2, §3
(§4) Group comparisons were made with one way analysis of variance (ANOVA) using peptide doses as column variables. Columns were further divided into pre-infusion, infusion, and post infusion subgroups to facilitate post hoc testing with Bonferroni's method for selected multiple comparisons. Row variables were individual measurements from each clearance period for each rat. Responses were tested for statistical significance by comparing control values during the pre-infusion, infusion and post infusion collection periods with corresponding values obtained from peptide-infused rats. Each experimental group included 5 different doses of huUgnA, huUgnB, or ST-core. Thus, fifteen comparisons were required for each measured variable in each group.

[3] = tested on: anesthetized rats; experiment: Renal blood flow (flow probe on left renal artery)
Description: as §2, §3

[4] = tested on: anesthetized rats; experiment: Urine flow rate during and after iv peptide infusion
Description: as §1, §3, §4

[5] = huUgnB 70 nmol, Post-infuse, * p<0.05 vs time control
[6] = huUgnB 140 nmol, Post-infuse, ** p<0.01 vs time control

Compound: CC(C)C[C@H](NC(=O)[C@@H]1CSSC[C@@H]2NC(=O)[C@H](CC(C)C)NC(=O)[C@H](CCC(=O)O)NC(=O)[C@@H](NC(=O)[C@H](CC(=O)O)NC(=O)[C@H](CC(=O)O)NC(=O)[C@@H](N)CC(N)=O)CSSC[C@H](NC(=O)[C@H](C)NC(=O)[C@H](C(C)C)NC(=O)[C@H](CC(N)=O)NC(=O)[C@H](C(C)C)NC2=O)C(=O)N[C@@H]([C@@H](C)O)C(=O)NCC(=O)N1)C(=O)O (single isomer, unassigned) [huUgnB, Asn Asp Asp Cys Glu Leu Cys Val Asn Val Ala Cys Thr Gly Cys Leu]
- FEK (fractional potassium excretion) ([1]; huUgnB 9 nmol, Infuse): 30.6 ± 6.1 % of filtered
- UKV (potassium excretion) ([1]; huUgnB 9 nmol, Infusion): 840 ± 83 nEq/min/g KW
- FEK (fractional potassium excretion) ([1]; huUgnB 9 nmol, Post-infuse): 34.8 ± 3.1 % of filtered
- UKV (potassium excretion) ([1]; huUgnB 9 nmol, Post-infuse): 943 ± 82 nEq/min/g KW
- FEK (fractional potassium excretion) ([1]; huUgnB 9 nmol, Pre-infuse): 23.4 ± 6.0 % of filtered
- UKV (potassium excretion) ([1]; huUgnB 9 nmol, Pre-infuse): 655 ± 79 nEq/min/g KW
- FEK (fractional potassium excretion) ([1]; huUgnB 18 nmol, Infuse): 29.6 ± 3.2 % of filtered
- UKV (potassium excretion) ([1]; huUgnB 18 nmol, Infusion): 860 ± 72 nEq/min/g KW
- FEK (fractional potassium excretion) ([1]; huUgnB 18 nmol, Post-infuse): 39.2 ± 2.6 % of filtered
- UKV (potassium excretion) ([1]; huUgnB 18 nmol, Post-infuse): 1014 ± 79 nEq/min/g KW
- FEK (fractional potassium excretion) ([1]; huUgnB 18 nmol, Pre-infuse): 20.0 ± 2.3 % of filtered
- UKV (potassium excretion) ([1]; huUgnB 18 nmol, Pre-infuse): 592 ± 71 nEq/min/g KW
- FEK (fractional potassium excretion) ([1]; huUgnB 35 nmol, Infuse): 32.6 ± 3.7 % of filtered
- UKV (potassium excretion) ([1]; huUgnB 35 nmol, Infusion): 837 ± 84 nEq/min/g KW
- FEK (fractional potassium excretion) ([1]; huUgnB 35 nmol, Post-infuse): 38.9 ± 3.0 % of filtered
- UKV (potassium excretion) ([1]; huUgnB 35 nmol, Post-infuse): 998 ± 85 nEq/min/g KW
- FEK (fractional potassium excretion) ([1]; huUgnB 35 nmol, Pre-infuse): 25.7 ± 2.4 % of filtered
- UKV (potassium excretion) ([1]; huUgnB 35 nmol, Pre-infuse): 729 ± 79 nEq/min/g KW
- FEK (fractional potassium excretion) ([1]; huUgnB 70 nmol, Infuse): 37.7 ± 9.8 % of filtered
- UKV (potassium excretion) ([1]; huUgnB 70 nmol, Infusion): 1297 ± 209 nEq/min/g KW
- FEK (fractional potassium excretion) ([1]; huUgnB 70 nmol, Post-infuse): 47.1 ± 5.6 % of filtered
- UKV (potassium excretion) [1, 5]: 1491 ± 183* nEq/min/g KW
- FEK (fractional potassium excretion) ([1]; huUgnB 70 nmol, Pre-infuse): 20.4 ± 5.5 % of filtered
- UKV (potassium excretion) ([1]; huUgnB 70 nmol, Pre-infuse): 791 ± 265 nEq/min/g KW
- FEK (fractional potassium excretion) ([1]; huUgnB 140 nmol, Infuse): 49.2 ± 3.6 % of filtered
- UKV (potassium excretion) ([1]; huUgnB 140 nmol, Infusion): 1086 ± 124 nEq/min/g KW
- UKV (potassium excretion) ([1]; huUgnB 140 nmol, Post-infuse): 1396 ± 89 nEq/min/g KW
- FEK (fractional potassium excretion) [1, 6]: 58.4 ± 3.5** % of filtered
- FEK (fractional potassium excretion) ([1]; huUgnB 140 nmol, Pre-infuse): 28.3 ± 0.9 % of filtered
- UKV (potassium excretion) ([1]; huUgnB 140 nmol, Pre-infuse): 770 ± 78 nEq/min/g KW
- FEK vs control ([1]; post infusion period, only after the highest doses): increased over control levels
- BP (mean arterial blood pressure) ([2]; huUgnB 9 nmol, Infusion): 108 ± 6 mmHg
- BP (mean arterial blood pressure) ([2]; huUgnB 9 nmol, Post-infuse): 107 ± 5 mmHg
- BP (mean arterial blood pressure) ([2]; huUgnB 9 nmol, Pre-infuse): 115 ± 5 mmHg
- BP (mean arterial blood pressure) ([2]; huUgnB 18 nmol, Infusion): 117 ± 3 mmHg
- BP (mean arterial blood pressure) ([2]; huUgnB 18 nmol, Post-infuse): 113 ± 3 mmHg
- BP (mean arterial blood pressure) ([2]; huUgnB 18 nmol, Pre-infuse): 124 ± 2 mmHg
- BP (mean arterial blood pressure) ([2]; huUgnB 35 nmol, Infusion): 108 ± 4 mmHg
- BP (mean arterial blood pressure) ([2]; huUgnB 35 nmol, Post-infuse): 107 ± 3 mmHg
- BP (mean arterial blood pressure) ([2]; huUgnB 35 nmol, Pre-infuse): 118 ± 3 mmHg
- BP (mean arterial blood pressure) ([2]; huUgnB 70 nmol, Infusion): 107 ± 5 mmHg
- BP (mean arterial blood pressure) ([2]; huUgnB 70 nmol, Post-infuse): 107 ± 4 mmHg
- BP (mean arterial blood pressure) ([2]; huUgnB 70 nmol, Pre-infuse): 119 ± 3 mmHg
- BP (mean arterial blood pressure) ([2]; huUgnB 140 nmol, Infusion): 119 ± 5 mmHg
- BP (mean arterial blood pressure) ([2]; huUgnB 140 nmol, Post-infuse): 117 ± 5 mmHg
- BP (mean arterial blood pressure) ([2]; huUgnB 140 nmol, Pre-infuse): 123 ± 5 mmHg
- Renal blood flow (RBF) ([3]; 35 nmol huUgnB/kg, before (first value of change), n=4): 2.5+0.1 ml/min/g KW
- Renal blood flow (RBF) ([3]; after 35 nmol huUgnB/kg, p<0.001, n=4): 3.0+0.4 ml/min/g KW
- V (urine flow rate) ([4]; huUgnB 9 nmol, Infusion): 2.22 ± 0.19 μl/min/g KW
- V (urine flow rate) ([4]; huUgnB 9 nmol, Post-infuse): 2.55 ± 0.18 μl/min/g KW
- V (urine flow rate) ([4]; huUgnB 9 nmol, Pre-infuse): 1.84 ± 0.28 μl/min/g KW
- V (urine flow rate) ([4]; huUgnB 18 nmol, Infusion): 2.40 ± 0.15 μl/min/g KW
- V (urine flow rate) ([4]; huUgnB 18 nmol, Post-infuse): 3.11 ± 0.32 μl/min/g KW
- V (urine flow rate) ([4]; huUgnB 18 nmol, Pre-infuse): 1.79 ± 0.14 μl/min/g KW
- V (urine flow rate) ([4]; huUgnB 35 nmol, Infusion): 2.53 ± 0.16 μl/min/g KW
- V (urine flow rate) ([4]; huUgnB 35 nmol, Post-infuse, *** p<0.005 vs time control): 3.84 ± 0.27*** μl/min/g KW
- V (urine flow rate) ([4]; huUgnB 35 nmol, Pre-infuse): 2.38 ± 0.25 μl/min/g KW
- V (urine flow rate) ([4]; huUgnB 70 nmol, Infusion): 3.11 ± 0.71 μl/min/g KW
- V (urine flow rate) [4, 5]: 3.92 ± 0.5* μl/min/g KW
- V (urine flow rate) ([4]; huUgnB 70 nmol, Pre-infuse): 2.04 ± 0.20 μl/min/g KW
- V (urine flow rate) ([4]; huUgnB 140 nmol, Infusion): 2.71 ± 0.40 μl/min/g KW
- V (urine flow rate) [4, 6]: 4.50 ± 0.80** μl/min/g KW
- V (urine flow rate) ([4]; huUgnB 140 nmol, Pre-infuse): 2.24 ± 0.14 μl/min/g KW
